Measurements reported in PubChem BioAssay AID248 (DTP/NCI, 2004).
Several values for one entry are separate records, joined by “and”; a condition that tells them apart may be missing. Identical values can stand only once. Inconclusive results and toxic doses are left out.

Tested on: L1210 leukemia ip in BDF1 mice, survival T/C
Test: NCI In Vivo Anticancer Drug Screen. Data for tumor model L1210 Leukemia (intraperitoneal) in B6D2F1 (BDF1) mice
Conditions: endpoint: mean survival time, higher = longer survival
Procedure, shortened: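 In this screen, tumor-bearing mice given compound are compared to those given vehicle, and their survival values are reported as a treated-to-control quotient.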

[1] = dose: 100.0 mg/kg/injection, schedule: Q04DX003 (ip), vehicle: saline
[2] = dose: 200.0 mg/kg/injection, schedule: Q04DX003 (ip), vehicle: saline
[3] = dose: 400.0 mg/kg/injection, schedule: Q04DX003 (ip), vehicle: saline
[4] = dose: 100.0 mg/kg/injection, schedule: Q01DX001 (ip), vehicle: saline
[5] = dose: 200.0 mg/kg/injection, schedule: Q01DX001 (ip), vehicle: saline
[6] = dose: 100.0 mg/kg/injection, schedule: Q04DX003 (ip), vehicle: Klucel (hydroxypropylcellulose) (HPC)
[7] = dose: 200.0 mg/kg/injection, schedule: Q04DX003 (ip), vehicle: Klucel (hydroxypropylcellulose) (HPC)
[8] = dose: 400.0 mg/kg/injection, schedule: Q04DX003 (ip), vehicle: Klucel (hydroxypropylcellulose) (HPC)
[9] = dose: 100.0 mg/kg/injection, schedule: Q01DX009 (ip), vehicle: Klucel (hydroxypropylcellulose) (HPC)
[10] = dose: 200.0 mg/kg/injection, schedule: Q01DX009 (ip), vehicle: Klucel (hydroxypropylcellulose) (HPC)
[11] = dose: 400.0 mg/kg/injection, schedule: Q01DX009 (ip), vehicle: Klucel (hydroxypropylcellulose) (HPC)

Q: `CCOS(=O)O` was tested. Which T/C [1] did it give?
A: 96 % of control

Q: What about the T/C [2] of the same compound?
A: 96 % of control

Q: What about the T/C [3] of the same compound?
A: 98 % of control

Q: Which results are given for `O=C1OCCN1NCc1ccc([N+](=O)[O-])o1`?
A: T/C [4]: 92 % of control; T/C [5]: 103 % of control; T/C (dose: 400.0 mg/kg/injection, schedule: Q01DX001 (ip), vehicle: saline): 101 % of control

Q: Which T/C [6] does the source give for `[N-]=[N+]=CS(=O)(=O)c1ccccc1-c1ccccc1` here?
A: 104 % of control

Q: And the T/C [7]?
A: 103 % of control

Q: And the T/C [8]?
A: 95 % of control

Q: How did the T/C (dose: 30.0 mg/kg/injection, schedule: Q01DX001 (ip), vehicle: saline) turn out when `CCCC[P+](CO)(CCCC)CCCC` was run?
A: 102 % of control

Q: For `CC(=O)CC(=O)Nc1cccc(NC(=O)CC(C)=O)c1`, which T/C (dose: 100.0 mg/kg/injection, schedule: Q01DX001 (ip), vehicle: Klucel (hydroxypropylcellulose) (HPC)) is on record?
A: 99 % of control

Q: And the T/C (dose: 200.0 mg/kg/injection, schedule: Q01DX001 (ip), vehicle: Klucel (hydroxypropylcellulose) (HPC))?
A: 94 % of control

Q: What about the T/C (dose: 400.0 mg/kg/injection, schedule: Q01DX001 (ip), vehicle: Klucel (hydroxypropylcellulose) (HPC)) of the same compound?
A: 101 % of control

Q: What does the source list for `O=C(Nc1ccc(Cl)c(Cl)c1)Oc1ccc(-c2ccccc2)cc1`?
A: T/C [9]: 93 % of control; T/C [6]: 87 % of control; T/C [10]: 100 % of control; T/C [7]: 92 % of control; T/C [11]: 90 % of control; T/C [8]: 88 % of control

Q: Which results are given for `Nc1ccc(N)c(C(=O)O)c1`?
A: T/C (dose: 75.0 mg/kg/injection, schedule: Q01DX001 (ip), vehicle: other): 98 % of control; T/C (dose: 150.0 mg/kg/injection, schedule: Q01DX001 (ip), vehicle: other): 93 % of control

Q: Which results are given for `ClC1=C(Cl)C2(Cl)C(C1Cl)C1(Cl)C(Cl)=C(Cl)C2(Cl)C1Cl` (centres undefined)?
A: T/C [9]: 97 % of control; T/C [6]: 102 % of control; T/C [10]: 97 % of control; T/C [7]: 104 % of control; T/C [11]: 97 % of control; T/C [8]: 93 % of control

Q: What does the source list for `Cc1ccc(N=N/C(=N\Nc2ccc(C)cc2)[N+](=O)[O-])cc1`?
A: T/C (dose: 75.0 mg/kg/injection, schedule: Q01DX001 (ip), vehicle: acetone): 90 % of control; T/C (dose: 150.0 mg/kg/injection, schedule: Q01DX001 (ip), vehicle: acetone): 94 % of control and 86 % of control and 89 % of control; T/C (dose: 300.0 mg/kg/injection, schedule: Q01DX001 (ip), vehicle: acetone): 93 % of control and 87 % of control and 88 % of control

Q: What does the source list for `Cc1cc(NS(=O)(=O)c2ccc(N=Nc3c(N)[nH]c(=S)[nH]c3=O)cc2)nc(C)n1`?
A: T/C [4]: 96 % of control; T/C [5]: 100 % of control

Q: Which results are given for `O=CC(=O)c1ccc(O)cc1`?
A: T/C (dose: 50.0 mg/kg/injection, schedule: Q01DX009 (ip), vehicle: saline sonified): 114 % of control; T/C (dose: 50.0 mg/kg/injection, schedule: Q04DX003 (ip), vehicle: saline): 111 % of control; T/C (dose: 66.0 mg/kg/injection, schedule: Q04DX003 (ip), vehicle: saline): 97 % of control; T/C (dose: 100.0 mg/kg/injection, schedule: Q01DX009 (ip), vehicle: saline sonified): 119 % of control; T/C [1]: 103 % of control and 111 % of control; T/C (dose: 150.0 mg/kg/injection, schedule: Q04DX003 (ip), vehicle: saline): 103 % of control; T/C [2]: 117 % of control

Q: `FC(Cl)(Cl)c1nc2nc(Cl)c(Cl)nc2[nH]1` was tested. Which T/C (dose: 25.0 mg/kg/injection, schedule: Q01DX009 (ip), vehicle: water) did it give?
A: 95 % of control

Q: What about the T/C (dose: 50.0 mg/kg/injection, schedule: Q01DX009 (ip), vehicle: water) of the same compound?
A: 94 % of control

Q: What about the T/C (dose: 100.0 mg/kg/injection, schedule: Q01DX009 (ip), vehicle: water) of the same compound?
A: 97 % of control

Q: Which T/C (dose: 100.0 mg/kg/injection, schedule: Q01DX001 (ip), vehicle: water) does the source give for `COc1cc(/C=C\C(=O)c2ccccc2)c([N+](=O)[O-])cc1OC` here?
A: 90 % of control

Q: And the T/C (dose: 200.0 mg/kg/injection, schedule: Q01DX001 (ip), vehicle: water)?
A: 88 % of control

Q: And the T/C (dose: 400.0 mg/kg/injection, schedule: Q01DX001 (ip), vehicle: water)?
A: 90 % of control

Q: For `OCC1OC(n2cnc3c(NCCCCNc4ncnc5c4ncn5C4OC(CO)C(O)C4O)ncnc32)C(O)C1O` (centres undefined), which T/C (dose: 100.0 mg/kg/injection, schedule: Q01DX005 (ip), vehicle: saline) is on record?
A: 100 % of control

Q: And the T/C (dose: 200.0 mg/kg/injection, schedule: Q01DX005 (ip), vehicle: saline)?
A: 108 % of control

Q: How did the T/C (dose: 100.0 mg/kg/injection, schedule: Q01DX009 (ip), vehicle: saline) turn out when `Cc1ccc(CO)cc1` was run?
A: 97 % of control

Q: What about the T/C [1] of the same compound?
A: 106 % of control

Q: And the T/C [2]?
A: 114 % of control

Q: And the T/C (dose: 400.0 mg/kg/injection, schedule: Q01DX009 (ip), vehicle: saline)?
A: 92 % of control

Q: What about the T/C [3] of the same compound?
A: 106 % of control

Q: What does the source list for `S=C(Nc1ccccc1)c1ccccc1`?
A: T/C (dose: 100.0 mg/kg/injection, schedule: Q04DX002 (ip), vehicle: Klucel (hydroxypropylcellulose) (HPC)): 89 % of control; T/C (dose: 200.0 mg/kg/injection, schedule: Q04DX002 (ip), vehicle: Klucel (hydroxypropylcellulose) (HPC)): 92 % of control; T/C (dose: 400.0 mg/kg/injection, schedule: Q04DX002 (ip), vehicle: Klucel (hydroxypropylcellulose) (HPC)): 105 % of control

Q: For `O=S1(=O)C2CCCC1C(Cl)CC2` (centres undefined), which T/C (dose: 15.0 mg/kg/injection, schedule: Q01DX001 (ip), vehicle: carboxymethylcellulose (CMC)) is on record?
A: 100 % of control

Q: `O=C(/C=C/c1ccccc1)C1CC1` was tested. Which T/C (dose: 100.0 mg/kg/injection, schedule: Q04DX003 (ip), vehicle: other) did it give?
A: 101 % of control

Q: What about the T/C (dose: 200.0 mg/kg/injection, schedule: Q04DX003 (ip), vehicle: other) of the same compound?
A: 98 % of control

Q: And the T/C (dose: 400.0 mg/kg/injection, schedule: Q04DX003 (ip), vehicle: other)?
A: 98 % of control

Q: Which T/C (dose: 100.0 mg/kg/injection, schedule: Q04DX003 (ip), vehicle: saline with Tween-80) does the source give for `Oc1cc2c(O)cccc2c2ccccc12` here?
A: 92 % of control

Q: What about the T/C (dose: 200.0 mg/kg/injection, schedule: Q04DX003 (ip), vehicle: saline with Tween-80) of the same compound?
A: 90 % of control

Q: With `CCCCOC(=O)CNC(=O)N(CC)C(=NCC)c1ccc(NC(=O)c2ccc(C(=O)Nc3ccc(C(=NCC)N(CC)C(=O)NCC(=O)OCCCC)cc3)cc2)cc1` as the compound, how does the T/C (dose: 1.87 mg/kg/injection, schedule: Q01DX015 (ip), vehicle: methylcellulose (MC)) read?
A: 106 % of control

Q: And the T/C (dose: 7.5 mg/kg/injection, schedule: Q01DX015 (ip), vehicle: methylcellulose (MC))?
A: 162 % of control and 189 % of control

Q: And the T/C (dose: 15.0 mg/kg/injection, schedule: Q01DX015 (ip), vehicle: methylcellulose (MC))?
A: 121 % of control
